Reference: US12251383B2, “Methods and compositions for KRAS inhibitors” (The Board of Regents of the University of Texas System, priority 2019, dated 2025)
“Also recorded” adds a separate entry of the source.

Assays:
[1] = system: KRAS^G12D; test: Cell signaling (Western) in BHK cells expressing KRAS G12D; type: cell-based, hamster; conditions: BHK KRAS^G12D
Method: (§1) Cell signaling. The inhibitory potential of compounds was tested in monoclonal Baby Hamster Kidney (BHK) cell lines stably expressing monomeric green fluorescence protein (mGFP)-tagged KRAS^G12D, K-Ras^G12V and HRAS^G12V. Cells were cultured in Dulbecco's Modified Eagle Medium (DMEM, Hyclone) supplemented with 10% v/v bovine calf serum and incubated with compound or vehicle (DMSO) for 3 h without serum. Cells were then harvested in lysis buffer (50 mM Tris (pH 7.5), 75 mM NaCl, 25 mM NaF, 5 mM MgCl2, 5 mM EGTA, 1 mM dithiothreitol, 100 μM NaVO4, 1% Nonidet P40 plus protease inhibitors) and subjected to Western analysis controlling protein loading by BCA (bicinchoninic acid) assay. Lysates were resolved with Bio-Rad polyacrylamide TGX 10% gel, transferred to polyvinylidene fluoride (PVDF) membrane and immunoblotted using pan-AKT (2920S), GFP (2956S), pAKT^S473 (4060L), p-cRaf^S338 (9427S), p-ERK^T202/Y204 (4370L), ERK1/2 (4695S) or β-actin antibodies (Cell Signaling Technology). IC50 values were calculated with Prism 4-parameter fit.
Cell signaling assays identify compound 11 as a promising initial hit Western analysis was used to quickly assess the potential impact of the predicted hits on MAPK signaling, a major pathway mediated by KRAS. Specifically, ERK1/2 phosphorylation levels (p-ERK) were monitored in BHK cells stably expressing KRAS^G12D treated with vehicle (DMSO), the MEK inhibitor […] (U) or compound at four different concentrations (1-100 μM). […] Compounds 9 and 11 (structures for compounds 1-11 are provided in Appendix I, attached hereto), on the other hand, decreased p-ERK levels at concentrations ≥50 μM and ≥5 μM, respectively. To verify the latter observation, the experiments were repeated in an expanded concentration range starting from 0.1 μM. […] However, compound 9 (see Appendix I, attached hereto) increased p-ERK levels at 25 and 38 μM in contrast to the decrease observed at higher concentrations (FIG. S1B; see Appendix I, attached hereto).

[2] = target: T1, KRAS^G12D-cRaf interaction (Homo sapiens, UniProt P01116, G12D); test: FLIM-FRET of GFP-KRAS G12D and RFP-cRaf in BHK cells; type: cell-based, hamster; conditions: 2 μM
T1 construct: expressed in transfected cells; host or cells: BHK (baby hamster kidney) cells, transient expression
From the text: [formula] where P1 is polarization of free KRAS, P2 is polarization of Raf-bound KRAS, c is the total concentration of KRAS, and x the total concentration of Raf^RBD. (FIG. 2B) Amount of GFP-KRAS^G12D pulled down by GST-Raf^RBD after treatment of cell lysates with compound at the concentrations indicated (representative Westerns are shown at the top). The RBD sequence length was 1-149 and 51-131 in the fluorescence polarization and pull-down assays, respectively. (FIG. 2C) GFP fluorescence lifetime from FLIM-FRET using cells expressing GFP-KRAS^G12D alone or with RFP-Raf, with or without treatment by 1 μM compound 11. Data are shown as mean±S.E; significance estimated by one-way analysis of variance.
Fluorescence lifetime imaging (FLIM)-fluorescence resonance energy transfer (FRET). FLIM-FRET experiments were carried out using a lifetime fluorescence imaging attachment (Lambert Instruments, The Netherlands) on an inverted microscope (43). BHK cells transiently expressing mGFP-tagged KRAS^G12D (donor), alone or with mRFP-tagged cRaf^WT (acceptor) (using 1:5 ratio), were prepared as indicated in each experiment. The samples were excited using a sinusoidally modulated 3 W 470 nm light-emitting diode at 40 MHz under epi-illumination. Fluorescein was used as a lifetime reference standard. […] The phase and modulation were determined from 12 phase settings using the manufacturer's software. […]

[3] = system: lung cancer cells; test: Cell proliferation (CyQuant), lung cancer cells overall; type: cell-based
From the text: (FIG. 5A) Chemical structure of compounds 12, an analogue of 11 lacking the terminal methyl alcohol functional group. (FIG. 5B) Predicted binding pose of compound 12. (FIG. 5C) p-ERK and p-cRaf levels in BHK cells expressing KRAS^G12D treated with indicated concentrations of compound 12 or vehicle. (FIG. 5D) Proliferation profile of lung cancer cells upon treatment with increasing concentration of compound 12, monitored by a CyQuant assay. Data are averages over three independent experiments and error bars represent standard error. (FIG. 5E) GFP fluorescence lifetime from FLIM-FRET using cells expressing GFP-KRAS^G12D alone or together with RFP-cRaf, with or without treatment with 2 μM compound 12.
Cell proliferation. Potential effect of the ligands on cancer cell proliferation was tested in three lung cancer cells: SKLU-1, H1975 and H522. Cells were plated at ˜1,000 cell per well in a 96-well plate and maintained in full serum media with or without compound at 37° C. for 72 h changing the media with the compound every 24 h. Media with compound was prepared by serial dilution at concentrations indicated. Then cells were washed with PBS and frozen at −80° C. for a minimum of 24 h. Plates were thawed and CyQuant™ dye (in lysis buffer provided in the CyQuant™ cell proliferation assay kit, Invitrogen™) was added, and after a five-minute incubation, fluorescence (excitation: 480 nm emission: 520 nm) was measured with a Tecan Infinite M200 plate reader.

[4] = Solubility in DMSO and common solvents; type: physicochemical; conditions: DMSO
[5] = system: HRAS^G12V; test: Cell signaling (Western) in BHK cells expressing HRAS G12V; type: cell-based, hamster; conditions: 10 μM
Method: as §1

| SMILES | concentration at which p-ERK levels are decreased [1] [µM] | effect on p-cRaf levels [1] | KRAS-Raf interaction (FLIM-FRET) [2] | inhibition of cell proliferation relative to compound 11 [3] | selectivity between KRAS mutant and KRAS^WT lung cancer cells [3] | solubility [4] | effect on MAPK signaling [5] |
| --- | --- | --- | --- | --- | --- | --- | --- |
| Cc1nn2c(N3CCN(C)CC3)cc(-c3ccccc3)nc2c1-c1ccccc1 [Compound 12] | 2 | no effect | does not affect | somewhat less effective | better selectively profile | less soluble; also recorded: solubility issues | – |
| N#CC(=C(/N)Sc1ccccc1N)/C(C#N)=C(\N)Sc1ccccc1N [Compound U0126, reference compound] | – | – | – | – | – | – | almost completely abolished |
